Series [1] can be described thus: Rat liver microsome stability (RLM) experiment. The following applies: rat liver microsomal stability. Format: in vitro ADME. How it is done: Effect embodiment 3 Rat liver microsome stability (RLM) experiment
Rat liver microsomes (Xenotech, item No. R1000, lot No. 1310030), 100 mM potassium phosphate buffer solution (pH 7.4), 10 mM magnesium chloride.
Compound preparation: 5 μL of compound DMSO mother liquor (10 mM) was added to 495 μL of methanol to obtain an intermediate solution with a compound concentration of 100 μM. Then 50 μL of the intermediate solution was taken and dissolved in 450 μL of potassium phosphate buffer solution to obtain a test solution with a final concentration of 10 μM.
NADPH regeneration system (concentration of isocitrate dehydrogenase 1 unit/mL).
Liver microsomes (final concentration 0.5 mg protein/mL).
Reaction termination solution: cold acetonitrile containing 100 ng/mL Tolbutamide and 100 ng/mL Labetalol as an internal standard.
• (1) Preparation of buffer solution: • Buffer solution A: 1.0 L of 0.1 M potassium phosphate buffer solution containing 1.0 mM EDTA • Buffer solution B: 1.0 L of 0.1 M dipotassium phosphate buffer solution containing 1.0 mM EDTA • Buffer solution C: 0.1 M potassium phosphate buffer, 1.0 mM EDTA, pH 7.4, titrated with 700 mL of buffer solution B and buffer solution A, monitored by pH meter. • (2) Preparation of reference substance (ketanserin) and concentration of administration solution of the test substance:
[…]: […] 10 mM DMSO reference substance stock solution and test substance stock solution were added to 190 μL of ACN, respectively. 1.5 μM administration solution (containing 0.75 mg/mL liver microsomes): […] administration solution and 18.75 μL of 20 mg/mL liver microsomes were added to 479.75 μL of buffer C on a wet ice. • (3) NADPH was added to buffer solution C to obtain a NADPH stock solution (6 mM). • (4) 30 μL of 1.5 μM administration solution (containing 0.75 mg/mL of liver microsomes) was taken on the wet ice and added to the wells of the test plate at different time points (0-, 5-, 15-, 30-, 45-min), respectively. • (5) Firstly, 135 μL of ACN containing IS was added to the wells of a 0 min test plate, and then 15 μL of the NADPH stock solution (6 mM) was added. • (6) The test plate at other time points and the NADPH stock solution were pre-heated in a 37° C. water bath for 5 minutes. • (7) 15 μL of the NADPH stock solution (6 mM) was taken and added to a pre-incubated test plate, and the reaction was started and timed. • (8) At 5 min, 15 min, 30 min and 45 min, 135 μL of CAN containing IS was added to the corresponding test plate respectively, and the test was completed. • (9) Test plates were shaken with a shaker (IKA, MTS 2/4) for 10 min (600 rpm/min) and then centrifuged for 15 min (Thermo Multifuge×3R, 5594 g). • (10) 50 μL of supernatant from each well was added to a 96-well sample plate containing 50 μL of ultrapure water (Millipore, ZMQS50F01), and the samples were analyzed by LC/MS.
(Microsomes from liver hold many membrane-bound enzymes, among them those of drug oxidation.)

Series [2] concerns the target T1, α5-GABAA receptor (Homo sapiens, UniProt P18507+P31644).
T1 construct: expressed in transfected cells; host or cells: HEK293, monoclonal stably transfected line
The series is described as follows: Cell-level screening: whole cell patch clamp, inverse agonist efficacy on α5-GABAA receptor expressed in HEK293. The format is cell-based. As to conditions: drug 100 nM, GABA 0.05 μM, HEK293 expressing α5, β3 and γ2 subunits, clamped at −60 mV; read-out: Compound inverse agonist efficacy %. In outline: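 Whole-cell patch clamp at −60 mV on HEK293 stably expressing α5β3γ2, pH 7.4 extracellular/CsCl internal solutions. Current evoked by 0.05 μM GABA, then compound in GABA solution; screening at 100 nM, dose-response 0.3–300 nM. Inverse agonist efficacy as % change of GABA current.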
A general note: In patch-clamp work, channel activity is measured electrically.

Series [3] can be described thus: Pharmacokinetic experiment on rats: brain entry ratio (brain tissue/plasma concentration ratio). The format is in vivo. As to conditions: rat, male SD rats, po 10 mg/kg, Table 7. The procedure:
The drug concentration ratio of plasma and brain tissue in the pharmacokinetic experiment on rats was used to evaluate the entry of compounds into brain. All rats fasted overnight before administration; the test compounds were dissolved and administered orally (po) to male SD rats, with 3 rats in each group. After administration of the test compounds, blood was collected by jugular vein puncture at 0.5 hours with about 0.25 mL per sample. The whole brain was taken at the same time. The plasma and brain tissue drug concentration were determined by LC-MS/MS method, and the pharmacokinetic parameters were calculated by Phoenix WinNonlin7.0. The dosage was 10 mg/kg, and the vehicle was 5% CMC-Na aqueous solution.

The nature of series [4]: Thermodynamic solubility in phosphate buffer solution (TS in PBS). Format: physicochemical. The following applies: aqueous buffer, thermodynamic from solid, 50 mM phosphate buffer solution pH 7.4, shaken at room temperature for 24 hours. How it is done:
50 mM phosphate buffer solution pH=7.4:0.39 g of NaH2PO4·2H2O, and 1.4025 g of Na2HPO4 were weighted and placed in an erlenmeyer flask, then 240 mL of water was added thereto. The solid was dissolved and mixed thoroughly, and the pH value was adjusted to 7.4 with 10M NaOH solution, and the resulting solution was transferred to a 250 mL volumetric flask, followed by dilution to scale with water.
(§1) Waters e2695 HPLC high performance liquid chromatography, Mettler XSE105 analytical balance.
(§2) Firstly, a 10 mM stock solution was prepared with DMSO, and was diluted with a diluent (ACN: PB buffer 50:50) into 1 μM-200 μM as a standard solution.
Thermodynamic solubility in phosphate buffer solution (TS in PBS). 1 mg of the sample was weighed, and 1.5 mL of 50 mM phosphate buffer solution (pH 7.4) was added thereto, then the mixture was shaken at room temperature for 24 hours to ensure that the sample was saturated, and filtered. The filtrate was detected with the high performance liquid chromatograph (UV). The compounds of the present disclosure and comparative compounds are tested by this method, and the results are shown in Table 3 below: […]

A short description of series [5]: Thermodynamic solubility in simulated intestinal fluid (TS in FaSSIF). Format: physicochemical. As to conditions: thermodynamic from solid, 37° C. The procedure:
Simulated intestinal fluid FaSSIF: 54.76 mg of FaSSIF-V2 (Biorelevant, batch. V2FAS-0619-A, lot. V2FAS01) was weighed and added to 15 mL of a buffer solution. After dissolving, the solution was supplemented to 30 mL, and put at room temperature for 1 hour before use.
as §1, §2
Thermodynamic solubility in intestinal fluid (TS in FaSSIF) was simulated. About 0.3 mg of each sample was weighed and added to 1.5 mL of FaSSIF solution, with two parts in parallel, shaken at 1000 rpm at 37° C. for 4 hours, filtered. 1 mL of an initial filtrate was discarded, and 400 μL of the subsequent filtrate was taken. The filtrate was detected by high performance liquid chromatograph (UV).

[6] abbreviates: Table 5, compounds of the disclosure and comparative compounds.
[7] abbreviates: Table 4, 0.5 mg protein/mL, NADPH, 37° C., 0-45 min.

Consider 22 compounds from patent publication US12637468B2, “Substituted [1,2,4]triazolo[4,3-b]pyridazines as GABAA receptor modulators” (SHANGHAI SIMR BIOTECHNOLOGY CO., LTD., priority 2019, dated 2026).

≈ marks a conversion by molar mass, not a printed value.

T1 sequence (P31644 32-462): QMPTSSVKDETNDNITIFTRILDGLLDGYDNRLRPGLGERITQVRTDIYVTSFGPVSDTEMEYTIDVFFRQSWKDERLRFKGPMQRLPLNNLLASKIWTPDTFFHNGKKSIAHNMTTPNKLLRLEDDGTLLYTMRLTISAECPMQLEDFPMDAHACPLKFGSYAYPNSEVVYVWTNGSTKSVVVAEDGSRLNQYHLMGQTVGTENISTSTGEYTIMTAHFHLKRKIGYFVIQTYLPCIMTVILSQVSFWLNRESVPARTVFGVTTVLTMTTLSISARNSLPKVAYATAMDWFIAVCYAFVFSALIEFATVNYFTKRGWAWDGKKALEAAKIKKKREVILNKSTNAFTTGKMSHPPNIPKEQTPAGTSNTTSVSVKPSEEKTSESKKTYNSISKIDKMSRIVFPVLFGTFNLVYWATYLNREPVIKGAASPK
T1 sequence (P28472 26-473 partner): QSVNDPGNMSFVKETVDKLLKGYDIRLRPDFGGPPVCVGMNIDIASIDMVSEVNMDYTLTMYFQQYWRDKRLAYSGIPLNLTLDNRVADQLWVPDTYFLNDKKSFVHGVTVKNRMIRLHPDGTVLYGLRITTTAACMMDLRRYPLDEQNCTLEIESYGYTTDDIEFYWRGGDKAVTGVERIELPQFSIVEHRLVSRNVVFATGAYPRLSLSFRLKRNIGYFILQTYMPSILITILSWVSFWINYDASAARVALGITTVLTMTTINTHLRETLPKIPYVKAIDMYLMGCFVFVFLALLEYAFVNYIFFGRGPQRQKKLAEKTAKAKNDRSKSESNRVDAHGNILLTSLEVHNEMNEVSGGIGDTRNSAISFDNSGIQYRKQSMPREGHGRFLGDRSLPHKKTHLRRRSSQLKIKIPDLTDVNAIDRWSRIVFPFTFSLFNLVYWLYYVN
T1 sequence (P18507 40-467 isoform P18507-1 limits assumed): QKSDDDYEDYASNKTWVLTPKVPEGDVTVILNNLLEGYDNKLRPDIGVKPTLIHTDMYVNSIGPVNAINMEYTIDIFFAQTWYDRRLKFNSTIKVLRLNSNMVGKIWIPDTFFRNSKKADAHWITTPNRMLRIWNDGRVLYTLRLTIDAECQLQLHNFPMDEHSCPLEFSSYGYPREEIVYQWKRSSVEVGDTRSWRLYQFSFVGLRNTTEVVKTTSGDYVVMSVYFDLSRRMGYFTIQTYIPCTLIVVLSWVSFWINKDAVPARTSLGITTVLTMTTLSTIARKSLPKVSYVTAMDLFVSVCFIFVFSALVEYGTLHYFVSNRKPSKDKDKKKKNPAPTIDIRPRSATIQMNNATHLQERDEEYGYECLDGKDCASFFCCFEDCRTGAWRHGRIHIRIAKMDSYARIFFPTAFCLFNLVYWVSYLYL

In turn, `CCNC(=O)c1ccc(COc2nn3c(-c4cc(C)on4)nnc3cc2OC)nc1` [drawing 925] had an RLM in series [1] (setting [6]) of 11.4 µL/min/mg.
As a reminder, the Kp is tissue or fluid exposure divided by exposure in the circulation. For `COc1cc2nnc(-c3cc(C)on3)n2nc1OCc1ccc2nc(C#N)cn2n1` [Embodiment 211, 6-(((7-Methoxy-3-(5-methylisoxazol-3-yl)-[1,2,4]triazolo[4,3-b]pyridazin-6-yl)oxy)methyl)imidazo[1,2-b]pyridazine-2-carbonitrile], the inhibition at 0.1 µM in series [2] was found to be 64.7%. This compound yielded an RLM in series [1] (setting [7]) of 5 µL/min/mg. For the same compound, the Kp at 0.5 h in series [3] came out at 0.018.
One may read the solubility (thermodynamic) as solubility found after equilibrating the solid with the medium. In the case of `Cc1cc(-c2nnc3cc(C(C)(C)C)c(OCc4ccccn4)nn23)no1` [drawing 918], in series [4], the thermodynamic solubility at 24 h amounted to 2.6 µg/mL (≈ 7.13 µM).
`Cc1cc(-c2nnc3cc(C(C)(C)C)c(OCc4ccccn4)nn23)no1` [drawing 924, reference compound] showed an RLM in series [1] (setting [6]) of 33.6 µL/min/mg.
`COc1cc2nnc(-c3cc(C)on3)n2nc1OCc1ccc2c(n1)CCN(C1CCOC1)C2` (stereo not shown) [Embodiment 183]: the inhibition at 0.1 µM in series [2] worked out at 55.8%. The compound also came in with an RLM in series [1] (setting [7]) of 5 µL/min/mg. Besides, the concentration ratio (Kp) at 0.5 h in series [3] came out at 0.0183.
With `CCNC(=O)c1ccc(COc2nn3c(-c4cc(C)on4)nnc3cc2C(C)(C)C)nc1` [drawing 921], the thermodynamic solubility at 24 h in series [4] amounted to 2.5 µg/mL (≈ 5.74 µM).
Consider `COc1cc2nnc(-c3cc(C)on3)n2nc1OCc1ccccn1` [drawing 922], for which, in series [1] (setting [6]), the RLM is 0.3 µL/min/mg.
On to `Cc1cc(-c2nnc3c4ccccc4c(OCc4ccccn4)nn23)no1` [drawing 917], for which, in series [4], the solubility (thermodynamic) at 24 h amounted to 0.3 µg/mL (≈ 0.837 µM).
As to `COc1cc2nnc(-c3cc(C)on3)n2nc1OCc1ccccn1` [drawing 916], the solubility (thermodynamic) at 24 h in series [4] stood at 20.1 µg/mL (≈ 59.4 µM). Against the preceding compound, the solubility thermodynamic at 24 h is about 67-fold higher.
In turn, `CCNC(=O)c1ccc(COc2nn3c(-c4cc(C)on4)nnc3cc2OC)nc1` [drawing 919] returned a solubility (thermodynamic) at 24 h in series [4] of 14.2 µg/mL (≈ 34.7 µM).
For `CCNC(=O)c1ccc(COc2nn3c(-c4cc(C)on4)nnc3c3ccccc23)nc1` [drawing 920], the thermodynamic solubility at 24 h in series [4] is 0.8 µg/mL (≈ 1.86 µM). This solubility thermodynamic at 24 h is about 18-fold lower than that of the compound before.
In series [1] (setting [6]), `Cc1cc(-c2nnc3c4ccccc4c(OCc4ccccn4)nn23)no1` [drawing 923, reference compound] displayed an RLM of 28.2 µL/min/mg.
Consider `CCNC(=O)c1ccc(COc2nn3c(-c4cc(C)on4)nnc3cc2C(C)(C)C)nc1` [drawing 927, reference compound], for which the RLM in series [1] (setting [6]) was 142.6 µL/min/mg.
The same measure, in the same setting: the value for `CCNC(=O)c1ccc(COc2nn3c(-c4cc(C)on4)nnc3c3ccccc23)nc1` [drawing 926, reference compound] was 26 µL/min/mg.
Consider `COCCCN1CCc2nc(COc3nn4c(-c5cc(C)on5)nnc4cc3OC)ccc2C1=O` [Embodiment 107], for which the inhibition at 0.1 µM in series [2] was found to be 39.3%. This compound also returned a thermodynamic solubility at 4 h in series [5] of 212 µg/mL (≈ 443 µM).
Consider `COCCCC(=O)N1CCc2nc(COc3nn4c(-c5cc(C)on5)nnc4cc3OC)ccc2C1` [Embodiment 112], for which the inhibition at 0.1 µM in series [2] came to 52.4%. Further, the thermodynamic solubility at 4 h in series [5] was 318 µg/mL (≈ 644 µM).
In the case of `COc1cc2nnc(-c3cc(C)on3)n2nc1OCc1ccc2c(n1)CCN(C(=O)NCC(F)(F)F)C2` [Embodiment 208], the inhibition at 0.1 µM in series [2] is 52.2%. This compound also returned a solubility (thermodynamic) at 4 h in series [5] of 34 µg/mL (≈ 65.5 µM).
The corresponding values for `CCN1CC(F)(c2ccc(COc3nn4c(-c5cc(C)on5)nnc4cc3OC)nc2)C1` [Embodiment 127] are 41.8% and 223 µg/mL (≈ 508 µM).
`COc1cc2nnc(-c3cc(C)on3)n2nc1OCc1ccc2c(n1)CCN(C(=O)N(C)C)C2` [Embodiment 203]: the inhibition at 0.1 µM in series [2] worked out at 63.6%. The same compound registered a solubility (thermodynamic) at 4 h in series [5] of 264 µg/mL (≈ 569 µM).
Consider `COCCN1Cc2nc(COc3nn4c(-c5cc(C)on5)nnc4cc3OC)ccc2C1=O` [Embodiment 66], for which the inhibition at 0.1 µM in series [2] came out at 62%. Further, the thermodynamic solubility at 4 h in series [5] was 146 µg/mL (≈ 323 µM).
As to `COc1cc2nnc(-c3cc(C)on3)n2nc1OCc1cccc(C2CCCNC2)n1` (stereo not shown) [Embodiment 103], the inhibition at 0.1 µM in series [2] is 43.9%. The solubility (thermodynamic) at 4 h in series [5] was 322 µg/mL (≈ 764 µM).
In the case of `COCCCOc1ccc(COc2nn3c(-c4cc(C)on4)nnc3cc2OC)nc1` [Embodiment 9], the inhibition at 0.1 µM in series [2] stood at 40.6%. The same compound came in with a solubility (thermodynamic) at 4 h in series [5] of 60.3 µg/mL (≈ 141 µM).
